According to PubChem BioAssay AID1963827 (Molecular Pharmacology Branch, DTP, NCI, 2024):
pIC50: −log10 of the molar value.

System: 994946-033-R-J1-PDC complex spheroid viability
Test: Anticancer human tumor 994946-033-R-J1-PDC patient-derived melanoma cell line growth inhibition [POLQ]
Settings: for pIC50: curve of first compound; for viability, T/C: stronger effect = lower value
How it was run: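 Complex spheroid viability model combining PDC tumour cells with endothelial (HUVEC) and MSC stromal cells. Novobiocin, ART-558 or RP6685 were tested singly and in combination with standard and investigational anticancer drugs. Each was titrated in half-log steps from near clinical Cmax, or from 10 microM where Cmax was unknown.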

[1] = second compound 0.0316 µM, first compound 0.0316 µM
[2] = second compound 0.0316 µM, first compound 0.1 µM
[3] = second compound 0.0316 µM, first compound 0.316 µM
[4] = second compound 0.0316 µM, first compound 1 µM
[5] = second compound 0.1 µM, first compound 0.0316 µM
[6] = second compound 0.1 µM, first compound 0.1 µM
[7] = second compound 0.1 µM, first compound 0.316 µM
[8] = second compound 0.1 µM, first compound 1 µM
[9] = second compound 0.316 µM, first compound 0.0316 µM
[10] = second compound 0.316 µM, first compound 0.1 µM
[11] = second compound 0.316 µM, first compound 0.316 µM
[12] = second compound 0.316 µM, first compound 1 µM
[13] = second compound 1 µM, first compound 0.0316 µM
[14] = second compound 1 µM, first compound 0.1 µM
[15] = second compound 1 µM, first compound 0.316 µM
[16] = second compound 1 µM, first compound 1 µM
[17] = second compound 3.16 µM, first compound 0.0316 µM
[18] = second compound 3.16 µM, first compound 0.1 µM
[19] = second compound 3.16 µM, first compound 0.316 µM
[20] = second compound 3.16 µM, first compound 1 µM
[21] = second compound 10 µM, first compound 0.0316 µM
[22] = second compound 10 µM, first compound 0.1 µM
[23] = second compound 10 µM, first compound 0.316 µM
[24] = second compound 10 µM, first compound 1 µM
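Further: spheroids exposed to drugs for 7 days.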
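Wherever viability, T/C is given: 100% = DMSO vehicle treated spheroids.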

CCCS(=O)(=O)Nc1ccc(F)c(C(=O)c2c[nH]c3ncc(-c4ccc(Cl)cc4)cc23)c1F + Nc1ccc(C#CCN(C(=O)Cc2ncc(C(F)(F)F)cc2C(F)(F)F)c2ccc(F)cc2)nn1
pIC50 (second compound 0.0316 µM): 5.16
pIC50 (second compound 0.1 µM): 5.16
pIC50 (second compound 0.316 µM): 5.17
pIC50 (second compound 1 µM): 5.13
pIC50 (second compound 3.16 µM): 5.14
pIC50 (second compound 10 µM): 5.20
viability, T/C [1]: 64.2%
viability, T/C [2]: 88%
viability, T/C [3]: 102%
viability, T/C [4]: 75.3%
viability, T/C (second compound 0.0316 µM, first compound 3.16 µM): 107%
viability, T/C (second compound 0.0316 µM, first compound 10 µM): 31.9%
viability, T/C [5]: 99.6%
viability, T/C [6]: 93%
viability, T/C [7]: 95.9%
viability, T/C [8]: 115%
viability, T/C (second compound 0.1 µM, first compound 3.16 µM): 100%
viability, T/C (second compound 0.1 µM, first compound 10 µM): 26.8%
viability, T/C [9]: 80.6%
viability, T/C [10]: 98.9%
viability, T/C [11]: 93.9%
viability, T/C [12]: 118%
viability, T/C (second compound 0.316 µM, first compound 3.16 µM): 84.5%
viability, T/C (second compound 0.316 µM, first compound 10 µM): 32.5%
viability, T/C [13]: 84.5%
viability, T/C [14]: 94.2%
viability, T/C [15]: 114%
viability, T/C [16]: 124%
viability, T/C (second compound 1 µM, first compound 3.16 µM): 108%
viability, T/C (second compound 1 µM, first compound 10 µM): 31.3%
viability, T/C [17]: 95.5%
viability, T/C [18]: 134%
viability, T/C [19]: 99.2%
viability, T/C [20]: 127%
viability, T/C (second compound 3.16 µM, first compound 3.16 µM): 90.9%
viability, T/C (second compound 3.16 µM, first compound 10 µM): 34.6%
viability, T/C [21]: 114%
viability, T/C [22]: 85%
viability, T/C [23]: 85.9%
viability, T/C [24]: 96.2%
viability, T/C (second compound 10 µM, first compound 3.16 µM): 95.6%
viability, T/C (second compound 10 µM, first compound 10 µM): 19.6%

COc1cccc(OCCCN)c1-c1cc(Nc2cnc(C#N)cn2)n[nH]1 + Nc1ccc(C#CCN(C(=O)Cc2ncc(C(F)(F)F)cc2C(F)(F)F)c2ccc(F)cc2)nn1
pIC50 (second compound 0.0316 µM): 7.60
pIC50 (second compound 0.1 µM): 7.63
pIC50 (second compound 0.316 µM): 7.77
pIC50 (second compound 1 µM): 7.79
pIC50 (second compound 3.16 µM): 7.63
pIC50 (second compound 10 µM): 7.71
viability, T/C (second compound 0.0316 µM, first compound 0.00316 µM): 71%
viability, T/C (second compound 0.0316 µM, first compound 0.01 µM): 66.9%
viability, T/C [1]: 34.4%
viability, T/C [2]: 49%
viability, T/C [3]: 14.3%
viability, T/C [4]: 17.4%
viability, T/C (second compound 0.1 µM, first compound 0.00316 µM): 86.9%
viability, T/C (second compound 0.1 µM, first compound 0.01 µM): 69.2%
viability, T/C [5]: 38.4%
viability, T/C [6]: 39.4%
viability, T/C [7]: 25%
viability, T/C [8]: 24.3%
viability, T/C (second compound 0.316 µM, first compound 0.00316 µM): 92.2%
viability, T/C (second compound 0.316 µM, first compound 0.01 µM): 66.1%
viability, T/C [9]: 31.9%
viability, T/C [10]: 19.9%
viability, T/C [11]: 25.6%
viability, T/C [12]: 15.7%
viability, T/C (second compound 1 µM, first compound 0.00316 µM): 80.1%
viability, T/C (second compound 1 µM, first compound 0.01 µM): 60.7%
viability, T/C [13]: 34.6%
viability, T/C [14]: 24.4%
viability, T/C [15]: 17.6%
viability, T/C [16]: 19%
viability, T/C (second compound 3.16 µM, first compound 0.00316 µM): 94.6%
viability, T/C (second compound 3.16 µM, first compound 0.01 µM): 66.6%
viability, T/C [17]: 47.5%
viability, T/C [18]: 24.2%
viability, T/C [19]: 28.7%
viability, T/C [20]: 19.9%
viability, T/C (second compound 10 µM, first compound 0.00316 µM): 100%
viability, T/C (second compound 10 µM, first compound 0.01 µM): 64.5%
viability, T/C [21]: 30.5%
viability, T/C [22]: 44.3%
viability, T/C [23]: 30.3%
viability, T/C [24]: 19.1%
